# Test results from US20240024466A1, “LIPIDOID COMPOSITIONS AND METHODS OF USE THEREOF” (Trustees of Tufts College, priority 2020, published 2024).
# B1: ovalbumin (protein, UniProt P01012 2-386, looked up)
# Ovalbumin: GSIGAASMEFCFDVFKELKVHHANENIFYCPIAIMSALAMVYLGAKDSTRTQINKVVRFDKLPGFGDSIEAQCGTSVNVHSSLRDILNQITKPNDVYSFSLASRLYAEERYPILPEYLQCVKELYRGGLEPINFQTAADQARELINSWVESQTNGIIRNVLQPSSVDSQTAMVLVNAIVFKGLWEKAFKDEDTQAMPFRVTEQESKPVQMMYQIGLFRVASMASEKMKILELPFASGTMSMLVLLPDEVSGLEQLESIINFEKLTEWTSSNVMEERKIKVYLPRMKMEEKYNLTSVLMAMGITDVFSSSANLSGISSAESLKISQAVHAAHAEINEAGREVVGSAEAGVDAASVSEEFRADHPFLFCIKHIATNAVLFFGRCVSP
# B2: OVA^Alexa-647: Alexa Fluor 647-conjugated OVA, model antigen (protein, UniProt P01012 2-386, looked up)
# Ovalbumin: B1 Ovalbumin
# modifications: Alexa Fluor 647 label
# Columns and labels:
# STING pathway [1] = assay: In vivo ifnb1 and cxcl10 gene expression in tumors by RT PCR; design: species or system C57BL/6 mice; conditions: intratumoral, one day after DOX injection, 6 h post second injection
# B16F10 tumor = assay: Treatment of B16F10 tumor by in situ vaccination; format: in vivo, C57BL/6 mice; conditions: DOX day 0, second and third injection day 1 and 5, intratumoral
# B16F10 tumors = assay: Immunocellular composition of the tumor microenvironment (flow cytometry); conditions: 48 h after the second injection
# Description: To further evaluate the changes of the cellular composition after the treatment, the tumors were collected at 48 h after the second injection. The tumors were dissociated to single cells, stained with antibodies, and analyzed by the flowcytometry (FIG. 11).
# After 48 h post the second injection, the tumors were collected and suspended to single cell solutions by 40 μm strainer (Thermo-Fisher). The cells were collected, washed with PBS, and stained with fluorescent antibodies of CD4 (APC-Cy7), CD8a (PE-Cy5), CD45 (PE), CD3e (FITC), F4/80 (APC), and CD11c (APC) in Flow Cytometry Staining Buffer (eBioscience). Fluorescent signal was measured using LSR-II flow cytometer (BD Biosciences). The data was analyzed by FlowJo-v10.
# STING pathway [2] = assay: In vitro ifnb1 and cxcl10 gene expression by RT PCR; format: cell-based; conditions: RAW264.7, 150 nM cGAMP, 4 h
# STING pathway [3] = assay: as above; format: cell-based; conditions: DC2.4, 150 nM cGAMP, 4 h
# draining lymph nodes = assay: In vivo mRNA delivery, luciferase mRNA expression in draining lymph nodes; conditions: adjuvant incorporated into the LNP
# dengue virus = assay: nAb response to a protein-based dengue virus vaccine with TLR ligands; conditions: in vivo
# Description: The two TLR ligands individually will be produced and in combination into mRNA-LNPs and test if they enhance nAb response and reduce antibody-dependent enhancement. The mechanisms underlying the enhanced nAb response will be investigated for further adjuvant optimization.
# C57BL/6 mice = assay: OVA prime-boost immunization with LNP formulations, antibody response by ELISA; conditions: rough library screening, OVA formulated with LNPs, injections at day 1 and day 14, FIG. 7B
# BALB/c mice = conditions: s.c., IVIS 5 h after second injection
molecule,measurement,setting,value
"COc1cccc2c1C(=O)c1c(O)c3c(c(O)c1C2=O)C[C@@](O)(C(=O)CO)C[C@@H]3O[C@H]1C[C@H](N)[C@H](O)[C@H](C)O1 [DOX, doxorubicin]",expression of ifnb1 and cxcl10 genes in B16F10 tumors,STING pathway [1],did not changed significantly
same,tumor growth inhibition (tumor volumes),B16F10 tumor,slight inhibition
same,population of CD4+ and CD8+ T cells at tumor sites,B16F10 tumors,did not make significant changes
"Nc1nc2c(ncn2[C@@H]2O[C@@H]3COP(=O)(O)O[C@H]4[C@@H](O)[C@H](n5cnc6c(N)ncnc65)O[C@@H]4COP(=O)(O)O[C@@H]2[C@@H]3O)c(=O)[nH]1 [cGAMP, 2′5′-3′5′ cyclic guanosine monophosphate-adenosine monophosphate]",expression of ifnb1 gene compared with PBS-treated cells,STING pathway [2],modest increase
same,expression of ifnb1 gene compared with PBS-treated cells,STING pathway [3],modest increase
same,expression of ifnb1 and cxcl10 genes in B16F10 tumors,STING pathway [1],modest increase
same,population of CD4+ and CD8+ T cells at tumor sites,B16F10 tumors,increasement
Pam3CSK4,expression of luciferase mRNA in draining lymph nodes,draining lymph nodes,increased
same,nAb responses to a protein-based dengue virus vaccine,dengue virus,dramatically augment
lipopolysaccharide [LPS],IgG1 antibody response,C57BL/6 mice,extremely positive
poly I:C,nAb responses to a protein-based dengue virus vaccine,dengue virus,dramatically augment
B1,IgG1 antibody response,C57BL/6 mice,very low antibody response
B2,distribution of OVA^Alexa-647 fluorescence signal,BALB/c mice,mainly distributed in bladder
